Consider 4 compounds from ChEMBL document CHEMBL1201862, “PubChem BioAssay data set” (2004).

Among the test systems are SK-OV-3; MDA-MB-435; UO-31; DU-145; U-251; MCF7; SF-268; HOP-92; MDA-MB-231; T47D; COLO 205; SNB-19; NCI-H460; PC-3; EKVX; SF-295; KM12; HOP-62; CCRF-CEM; SK-MEL-2.
What all share (experiment): NCI-60 cell line screen, 48 h

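Test compounds were applied to cells in 96-well plates for 48 hours at 5 doses. GI50 is the concentration that inhibits growth by half.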 Calls of active or inactive are those of the source. Cut-off read from the data, not from the text of the source: active = GI50 up to about 1.1 µM and inactive = higher.

For `CCCCCC(=O)N[C@@H](c1ccccc1)C(O)C(=O)OC1C[C@@]2(O)C(OC(=O)c3ccccc3)C3[C@](C)(C(=O)[C@H](O)C(=C1C)C2(C)C)C(OC1OCC(O)C(O)C1O)C[C@H]1OC[C@@]31OC(C)=O` (some centres undefined), the GI50 with SK-OV-3 was 3.04 µM (inactive); in the test with MDA-MB-435, 0.202 µM (active); in the test with UO-31, > 75.9 µM (inactive); with DU-145, 2.88 µM (inactive); in the test on U-251, 1.64 µM (inactive); with MCF7 it was 1.02 µM (active). Further, the GI50 in the test on SF-268 is 2.32 µM (inactive); with HOP-92, 24.6 µM (inactive); in the test on MDA-MB-231, 67.6 µM (inactive); with T47D, 1.76 µM (inactive); with COLO 205 it was 0.665 µM (active); in the test on SNB-19, 4.91 µM (inactive). Also, the GI50 in the test on NCI-H460 was 0.757 µM (active); with PC-3, 1.29 µM (inactive); in the test on EKVX it was > 64.7 µM (inactive); in the test on SF-295, 21.2 µM (inactive); in the test on KM12 it was 1.21 µM (inactive); with HOP-62, 5.05 µM (inactive). Also, the GI50 in the test with CCRF-CEM was 1.57 µM (inactive).
For `c1ccc2c(c1)/C(=N\NC1=NCCN1)c1nc3ccccc3nc1-2`, the GI50 with SK-OV-3 was 1.54 µM (inactive); in the test on MDA-MB-435, 6.32 µM (inactive); in the test with DU-145, 10.6 µM (inactive); in the test on U-251, 6.87 µM (inactive); in the test on MCF7, 3.32 µM (inactive); in the test with SF-268, 6.67 µM (inactive). In addition, the GI50 in the test on HOP-92 is 2.58 µM (inactive); in the test with MDA-MB-231 it was 10.5 µM (inactive); in the test on T47D, 19 µM (inactive); with COLO 205 it was 2.17 µM (inactive); with SNB-19, 6.44 µM (inactive); with NCI-H460, 2.44 µM (inactive). Besides, the GI50 is 2.56 µM (inactive) in the test with PC-3; 12.9 µM (inactive) in the test on EKVX; 2.45 µM (inactive) with SF-295; 3.88 µM (inactive) with KM12; 3.72 µM (inactive) with HOP-62; 3.8 µM (inactive) in the test on CCRF-CEM.
Consider `CCOC(=O)c1c(SC(=O)c2cc(OC)c(OC)c(OC)c2)n(-c2ccccc2)c(=S)n(-c2ccccc2)c1=O`, for which the GI50 in the test with SK-OV-3, with MDA-MB-435, in the test on DU-145, in the test on U-251, in the test with MCF7 and with SF-268 was > 100 µM (inactive) each time. The GI50 in the test on HOP-92, with MDA-MB-231, in the test with T47D, with COLO 205, in the test on SNB-19 and with NCI-H460 was > 100 µM (inactive) throughout. Moreover, the GI50 in the test with PC-3, in the test on EKVX, in the test on SF-295, in the test with KM12, in the test on HOP-62 and with CCRF-CEM was > 100 µM (inactive) each time.
For `COc1ccc2c(c1)CC[C@@H]1[C@@H]2CC[C@]2(C)/C(=N/OCCN3CCCC3)CC[C@@H]12`, the GI50 in the test with MDA-MB-435 is 0.91 µM (active); in the test on UO-31, 2.81 µM (inactive); in the test with DU-145 it was 3.94 µM (inactive); in the test on U-251, 3.46 µM (inactive); with MCF7, 3.03 µM (inactive); in the test with SF-268, 4.07 µM (inactive). Moreover, the GI50 with HOP-92 is 2.49 µM (inactive); with MDA-MB-231, 3.83 µM (inactive); in the test with T47D, 3.21 µM (inactive); in the test on COLO 205, 1.67 µM (inactive); with SNB-19 it was 11.1 µM (inactive); in the test with NCI-H460, 1.5 µM (inactive). Further, the GI50 with PC-3 is 3.85 µM (inactive); in the test with EKVX, 4.57 µM (inactive); in the test with SF-295, 2.35 µM (inactive); in the test with KM12, 2.42 µM (inactive); in the test on SK-MEL-2, 1.82 µM (inactive); in the test with HOP-62, 1.98 µM (inactive). The GI50 in the test with CCRF-CEM is 1.49 µM (inactive).
